The results in this text go back to patent US10335400B2, “Treatment of tauopathies with mGluR5 antagonists” (priority 2014, dated 2019).

The target in assay [1] is bovine purified PP2A holoenzyme (Bos taurus, UniProt P67774). Kind of assay: In vitro PP2A activity assay with purified PP2A holoenzyme. Format: biochemical. To be noted: purified PP2A holoenzyme in the presence or absence of BMAA. The text has this: No effect of BMAA on PP2A activity was found.
The test system of assay [2] is PP2A regulated protein kinases. Kind of assay: Phosphorylated PP2A regulated protein kinases by Western blots in rat brain slices. Format: cell-based. To be noted: BMAA-treated rat brain slices (1 mM, 2 h). As for the experimental part: Male Wistar rats (Charles River Laboratories), 2-3 months old, were anesthetized by i.p. injection with 50 mg/kg Nembutal. The animals were decapitated when deeply anesthetized. The brains were removed immediately and cooled in ice-cold (4° C.) oxygenated artificial cerebrospinal fluid (aCSF) consisting of 126 mM NaCl, 3.5 mM KCl, 1.2 mM NaH2PO4, 1.3 mM MgCl2, 2 mM CaCl2, 11 mM D(+) glucose, and 25 mM NaHCO3 (pH 7.4) for 7-8 min. Each brain then was divided sagittally, and 400-μm-thick coronal slices were made with a Camden Vibraslicer (WP, Inc.). The slices were transferred into a chamber containing the oxygenated aCSF and were incubated at 33° C. for 2 h in the presence or absence of 1 mM, β-N ? methylamino-L-alanine (BMAA) dissolved in 10 mM NaHCO3 (Sigma). The oxygenation of the aCSF was carried out by bubbling the solution with a mixture of 95% O2 and 5% CO2 during the entire procedure. At the end of incubation, the brain slices were homogenized with homogenizing buffer [50 mM Tris·HCl (pH 7.4), 8.5% (wt/vol) sucrose, 2 mM EDTA, 2 mM EGTA, 10 mM (3-mercaptoethanol, 5 mM benzamidine, 0.5 mM 4-(2-Aminoethyl) benzenesulfonyl fluoride hydrochloride (AEBSF), 4 μg/mL pepstatin A, and 10 μg/mL each of aprotinin and leupepin] at a ratio of 9.0 mL buffer/1.0 g tissue slices. The homogenates were divided into two parts. One part was centrifuged at 16,000×g for 10 min, and the resulting supernatant was used to assay protein phosphatase 2A (PP2A) activity. Into the other half, an equal volume of phosphatase-inhibitor mixture (20 mM 3-glycerophosphate, 2 mM Na3VO4, and 100 mM NaF) was added immediately, and the samples were used for Western blots.
Protein was fractionated by 10% SDS/PAGE, transferred to PVDF membrane, and then blocked with 5% skim milk for 1 h at room temperature. The membrane was probed with anti-IPP2A (5G6, 1:1, 500) (7), anti-I2P2A (10E7, 1:1, 600) (7), anti-tau ˜92e; 1:5,000) (8), anti-tau (R134d; 1:5 000) (9), anti-tau pSer^262/^356 (12E8; 1:500) (10, anti-tau pSer^199, anti-tau pThr^205, anti-tau pThr^212, and pSer^396 (1:1,000) (Biosource), anti-GAPDH (1:2,000) (Santa Cruz Biotechnology), anti-PP2Ac (1:10 000) (BD Transduction Lab), anti pY^307-PP2A and anti-DML^309-PP2A (1:1,000) (Millipore), anti-GSK-3(α/β), anti-pS^9-GSK-3 β, anti-ERK1/2, anti-pT^202/Y^204-ERK1/2, anti-MEK1/2, anti-p9^17/221-MEK1/2, anti-CAMKII, anti-pT^286-CAMKII, anti-p70 S6 kinase, anti-pT^389-p70 S6 kinase, anti-SAPK/JNK, and anti-pT^183/Y^185-SAPK/JNK (1:1,000) (Cell Signaling Technology). The membrane then was incubated with HRP-conjugated secondary antibody (Jackson ImmunoResearch). The protein bands were detected with the enhanced chemiluminescence reagents (Thermo Scientific). Band intensity was measured by Multi-Gauge V3 software (Fuji Photo Film).
On the technique in general: In western blotting, separated proteins are transferred to a membrane and probed.

The subject of a further assay is PP2A. Kind of assay: PP2A activity (phosphatase ELISA) and PP2Ac protein level in BMAA-treated mouse mixed primary neuronal cultures. Format: cell-based. To be noted: BMAA 100 μM to 1 mM, 3-48 h. As for the experimental part: Mouse hippocampal neuronal cultures were prepared from d 18 embryos as previously described (1). Briefly, C57BL/6 pregnant female mice from Charles River Laboratories were killed by cervical dislocation. All studies were performed in accordance with the recommendations in the Guide for the Care and Use of Laboratory Animals of the National Institutes of Health (2). The protocol was approved by Institutional Animal Care and Use Committee of the New York Institute for Basic Research in Developmental Disabilities. All surgeries were performed under anesthesia, and all efforts were made to minimize suffering. Embryos were removed and placed in cold Hibernate A (BrainBits, LLC), and all the following steps were performed in ice-cold Hibernate A, under a stereoscopic (dissection) microscope placed in a laminar flow hood. Fetal brains were removed carefully, and forebrains were separated. The hippocampus, including the cortex surrounding the area of the hippocampus, was dissected and cut into small pieces using microsurgical scissors. […]
PP2A activity was assayed with homogenate of rat brain slices using the phosphatase ELISA described previously (5). […] Finally 75 μL of 3,3′,5,5′-Tetramethylbenzidine substrate reagent (Sigma) was added, and the colorimetric development was measured using a microtiter plate reader at a wavelength of 650 nm. […]
A general note: An ELISA detects its analyte on a solid surface through an enzyme-linked reagent.

Chain of bovine purified PP2A holoenzyme (Q32PI5 whole entry): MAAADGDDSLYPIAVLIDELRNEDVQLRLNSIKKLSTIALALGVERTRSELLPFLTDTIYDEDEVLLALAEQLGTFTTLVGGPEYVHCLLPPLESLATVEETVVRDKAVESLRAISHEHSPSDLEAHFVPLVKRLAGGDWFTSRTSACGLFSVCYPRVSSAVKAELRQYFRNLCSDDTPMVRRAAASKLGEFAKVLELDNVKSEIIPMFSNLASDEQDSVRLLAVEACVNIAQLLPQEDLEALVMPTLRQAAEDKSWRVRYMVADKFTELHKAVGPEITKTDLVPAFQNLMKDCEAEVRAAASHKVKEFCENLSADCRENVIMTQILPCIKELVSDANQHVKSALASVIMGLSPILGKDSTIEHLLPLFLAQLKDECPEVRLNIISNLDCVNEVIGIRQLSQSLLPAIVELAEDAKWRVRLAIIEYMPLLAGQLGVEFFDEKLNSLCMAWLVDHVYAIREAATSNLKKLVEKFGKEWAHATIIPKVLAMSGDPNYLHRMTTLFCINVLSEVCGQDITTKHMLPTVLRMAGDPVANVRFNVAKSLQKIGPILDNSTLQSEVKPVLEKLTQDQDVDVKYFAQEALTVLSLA
Chain of bovine purified PP2A holoenzyme (P67774 whole entry): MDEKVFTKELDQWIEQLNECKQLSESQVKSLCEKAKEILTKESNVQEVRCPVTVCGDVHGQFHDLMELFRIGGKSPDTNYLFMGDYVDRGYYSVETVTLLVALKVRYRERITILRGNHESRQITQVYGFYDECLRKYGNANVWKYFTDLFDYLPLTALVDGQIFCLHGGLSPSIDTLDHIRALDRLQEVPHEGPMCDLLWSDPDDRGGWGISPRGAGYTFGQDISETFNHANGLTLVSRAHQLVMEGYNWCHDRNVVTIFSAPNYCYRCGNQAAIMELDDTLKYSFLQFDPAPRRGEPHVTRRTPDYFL

As to `CNC[C@H](N)C(=O)O` [BMAA, β-N-methylamino-L-alanine], in assay [1], the “direct effect on PP2A activity” value is given as “No effect”. In assay [2], the “level of phosphorylated GSK-3β” value is recorded as “no significant changes”, the “level of phosphorylated JNK” value is “no significant changes”, the “level of phosphorylated p70 S6 kinase” value was “no significant changes” and the “level of phosphorylated/activated CaMKII” value is listed as “increased noticeably”. In addition, in assay [2], the “level of phosphorylated/activated ERK1/2” value was “increased noticeably” and the “level of phosphorylated/activated MEK1/2” value was “increased noticeably”. The PP2A activity result with PP2A is recorded as “significantly decreased”.
